# In patent US20240002416A1 (Rheinische-Friedrich-Wilhelms-Universität Bonn, priority 2020, published 2024):
# How the values were obtained:
# human MRGPRX4-83L [1] = biological target: T1, human MRGPRX4-83L (Homo sapiens, UniProt Q96LA9); assay: β-arrestin assay (CHO β-arrestin ARMS1-ProLink 2 human MRGPRX4 83L); format: cell-based; conditions: for Emax: read-out: Emax; for EC50: β-arrestin recruitment, CHO cells, MRGPRX4-83L, read-out: EC50 ± SEM; for IC50: inhibition of the effect of 2.6 μM B-16
# T1 construct: host or cells: CHO β-arrestin cells
# Procedure: (§1) For β-arrestin recruitment assays, recombinant Chinese hamster ovary (CHO) cells expressing the human MRGPRX4 were used (DiscoverX/Eurofins) which allowed to measure β-galactosidase complementation upon β-arrestin recruitment. For calcium mobilization assays, recombinant astrocytes expressing MRGPX4-83L, or LN229 glioblastoma cells natively expressing the MRGPRX4-83S, were used.
# (§2) The assays were performed as previously described for other rhodopsin-like GPCRs (Müller, C.E.; 8-Benzamidochromen-4-one-2-carboxylic acids: potent and selective agonists for the orphan G protein-coupled receptor GPR35. J. Med. Chem. 2013, 56:5182-97; Müller, C.E. Molecular Recognition of Agonists and Antagonists by the Nucleotide-Activated G Protein-Coupled P2Y2 Receptor. J. Med. Chem. 2017, 60:8425-8440).
# human MRGPRX4-83L [2] = biological target: T1, human MRGPRX4-83L; assay: Calcium assay (human MRGPRX4 83L), recombinant astrocytes; format: cell-based; conditions: for EC50: calcium mobilization, MRGPRX4-83L, read-out: EC50 ± SEM; for Emax: read-out: Emax
# Procedure: as §1, §2
# MRGPRX4-83S [3] = biological target: T2, MRGPRX4-83S (Homo sapiens, UniProt Q96LA9, L83S); assay: β-arrestin assay (CHO β-arrestin human MRGPRX4-83S); format: cell-based; design: host or cells: CHO β-arrestin cells; conditions: for EC50 / Emax: Table 2; for EC50: β-arrestin recruitment, CHO cells, MRGPRX4-83S, read-out: EC50 ± SEM; for Emax: efficacy based on 100 nM B-16 (set as 100%), read-out: Emax
# Procedure: as §1, §2
# MRGPRX4-83S [4] = biological target: T2, MRGPRX4-83S; assay: Calcium assay (human glioblastoma LN229 cells expressing the MRGPRX4-83S); format: cell-based; design: LN229 glioblastoma cells natively expressing the MRGPRX4-83S; endogenous in cells; host or cells: LN229 human glioblastoma cells; conditions: Table 2; for EC50: calcium mobilization, LN229 cells, MRGPRX4-83S, read-out: EC50 ± SEM; for Emax: LN-229, efficacy based on 30 μM H-1 (set as 100%), read-out: Emax
# Procedure: as §1, §2
# [5] = Table 1, efficacy based on maximal effect of 100 nM B-16 (set as 100%)
# [6] = Table 1, means of 3-4 experiments
# [7] = Table 1, efficacy based on maximal effect of 1 μM B-16 (set as 100%)
# [8] = Table 4, efficacy based on maximal effect of 100 nM B-16 (set as 100%)
# [9] = Table 4, efficacy based on maximal effect of 1 μM B-16 (set as 100%)
# T1 sequence (Q96LA9 whole entry): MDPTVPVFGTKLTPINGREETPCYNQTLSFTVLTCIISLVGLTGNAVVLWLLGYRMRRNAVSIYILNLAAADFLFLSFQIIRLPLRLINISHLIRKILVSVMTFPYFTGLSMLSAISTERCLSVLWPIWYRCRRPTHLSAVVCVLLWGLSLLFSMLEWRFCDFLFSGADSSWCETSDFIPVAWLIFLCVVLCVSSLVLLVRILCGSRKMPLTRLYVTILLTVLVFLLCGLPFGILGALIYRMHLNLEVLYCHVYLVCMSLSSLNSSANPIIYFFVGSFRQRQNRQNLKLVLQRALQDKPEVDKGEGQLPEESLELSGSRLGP
# T2 sequence (Q96LA9 whole entry L83S): as the sequence (Q96LA9 whole entry) above, with L83S counted along it
SMILES,EC50 (human MRGPRX4-83L [1]; [6]) [nM],EC50 (human MRGPRX4-83L [2]; Table 1) [nM],melting point [°C],Emax (human MRGPRX4-83L [1]; [8]) [%],EC50 (human MRGPRX4-83L [1]; Table 4) [nM],EC50 (human MRGPRX4-83L [2]; Table 4) [nM],Emax (human MRGPRX4-83L [2]; [9]) [%],also measured
"C#CCn1c(=O)c2c(nc(CCc3ccccc3Br)n2CC)n(CCCCP(=O)(O)O)c1=O [B-19, (4-(8-(2-Bromophenethyl)-7-ethyl-2,6-dioxo-1-(prop-2-yn-1-yl)-1,2,6,7-tetrahydro-3H-purin-3-yl)butyl)phosphonic acid]",25.9 ± 7.9,4.26 ± 0.56,192 to 195,–,–,–,–,Emax (human MRGPRX4-83L [1]; [5]): 144%; Emax (human MRGPRX4-83L [2]; [7]): 115%
"C#CCn1c(=O)c2c(nc(CCc3ccccc3Br)n2Cc2ccccc2)n(CCCCP(=O)(O)O)c1=O [B-23, (4-(7-Benzyl-8-(2-bromophenethyl)-2,6-dioxo-1-(prop-2-yn-1-yl)-1,2,6,7-tetrahydro-3H-purin-3-yl)butyl)phosphonic acid]",59.9 ± 12.8,5.03 ± 1.59,126 to 129,–,–,–,–,Emax (human MRGPRX4-83L [1]; [5]): 164%; Emax (human MRGPRX4-83L [2]; [7]): 103%
"C#CCn1c(=O)c2c(nc(CCc3ccccc3Br)n2CC)n(CCCCCCP(=O)(O)O)c1=O [B-57, (6-(8-(2-Bromophenethyl)-7-ethyl-2,6-dioxo-1-(prop-2-yn-1-yl)-1,2,6,7-tetrahydro-3H-purin-3-yl)hexyl)phosphonic acid]",–,–,223 to 225,97,766 ± 357,474 ± 152,98,–
"C#CCn1c(=O)c2c(nc(CCc3ccc(Br)cc3)n2CC)n(CCCCP(=O)(O)O)c1=O [B-35, (4-(8-(4-Bromophenethyl)-7-ethyl-2,6-dioxo-1-(prop-2-yn-1-yl)-1,2,6,7-tetrahydro-3H-purin-3-yl)butyl)phosphonic acid]",–,–,169 to 171,84,521 ± 142,306 ± 111,41,–
"C#CCn1c(=O)c2c(nc(CCc3ccccc3Br)n2C)n(CCCCCCP(=O)(O)O)c1=O [B-56, (6-(8-(2-Bromophenethyl)-7-methyl-2,6-dioxo-1-(prop-2-yn-1-yl)-1,2,6,7-tetrahydro-3H-purin-3-yl)hexyl)phosphonic acid]",–,–,221 to 223,91,576 ± 83,57.8 ± 18.9,102,–
"C#CCn1c(=O)c2[nH]c(CCc3ccccc3Br)nc2n(CCCCCP(=O)(O)O)c1=O [B-52, (5-(8-(2-Bromophenethyl)-2,6-dioxo-1-(prop-2-yn-1-yl)-1,2,6,7-tetrahydro-3H-purin-3-yl)pentyl)phosphonic acid]",–,–,219 to 221,93,1890 ± 280,604 ± 275,61,–
"C#CCn1c(=O)c2c(nc(CCc3ccccc3Br)n2CC)n(CCCCCP(=O)(O)O)c1=O [B-54, (5-(8-(2-Bromophenethyl)-7-ethyl-2,6-dioxo-1-(prop-2-yn-1-yl)-1,2,6,7-tetrahydro-3H-purin-3-yl)pentyl)phosphonic acid]",–,–,146 to 148,96,534 ± 170,20.1 ± 4.1,103,–
"C#CCn1c(=O)c2c(nc(CCc3ccccc3Br)n2CC2CCCC2)n(CCCCP(=O)(O)O)c1=O [B-37, (4-(8-(2-Bromophenethyl)-7-(cyclopentylmethyl)-2,6-dioxo-1-(prop-2-yn-1-yl)-1,2,6,7-tetrahydro-3H-purin-3-yl)butyl)phosphonic acid]",–,–,137 to 139,87,169 ± 23,89.2 ± 25.5,84,–
"C#CCn1c(=O)c2c(nc(CCc3ccccc3Br)n2CC2CC2)n(CCCCP(=O)(O)O)c1=O [B-21, (4-(8-(2-Bromophenethyl)-7-(cyclopropylmethyl)-2,6-dioxo-1-(prop-2-yn-1-yl)-1,2,6,7-tetrahydro-3H-purin-3-yl)butyl)phosphonic acid]",89.8 ± 20.9,2.02 ± 0.62,181 to 184,–,–,–,–,Emax (human MRGPRX4-83L [1]; [5]): 163%; Emax (human MRGPRX4-83L [2]; [7]): 109%
"C#CCn1c(=O)c2c(nc(CCc3ccccc3Br)n2CCO)n(CCCCP(=O)(O)O)c1=O [B-20, (4-(8-(2-Bromophenethyl)-7-(2-hydroxyethyl)-2,6-dioxo-1-(prop-2-yn-1-yl)-1,2,6,7-tetrahydro-3H-purin-3-yl)butyl)phosphonic acid]",32.9 ± 7.5,1.86 ± 0.45,157 to 160,–,–,–,–,Emax (human MRGPRX4-83L [1]; [5]): 124%; Emax (human MRGPRX4-83L [2]; [7]): 103%
"C#CCn1c(=O)c2c(nc(Cc3cccc4ccccc34)n2CC)n(CCCCP(=O)(O)O)c1=O [B-58, (4-(7-Ethyl-8-(naphthalen-1-ylmethyl)-2,6-dioxo-1-(prop-2-yn-1-yl)-1,2,6,7-tetrahydro-3H-purin-3-yl)butyl)phosphonic acid]",–,–,138 to 140,–,–,–,–,–
"C#CCn1c(=O)c2nc(CCc3ccc(Br)cc3)[nH]c2n(CCCCP(=O)(O)O)c1=O [B-26, (4-(8-(4-Bromophenethyl)-2,6-dioxo-1-(prop-2-yn-1-yl)-1,2,6,9-tetrahydro-3H-purin-3-yl)butyl) phosphonic acid]",–,–,206 to 208,70,2740 ± 580,187 ± 39,79,–
"C#CCn1c(=O)c2c(nc(CCc3ccc(Br)cc3)n2C)n(CCCCP(=O)(O)O)c1=O [B-29, (4-(8-(4-Bromophenethyl)-7-methyl-2,6-dioxo-1-(prop-2-yn-1-yl)-1,2,6,7-tetrahydro-3H-purin-3-yl)butyl)phosphonic acid]",–,–,227 to 229,100,2440 ± 750,134 ± 13,45,–
"C#CCn1c(=O)c2[nH]c(CCc3ccccc3Br)nc2n(CCCCCCP(=O)(O)O)c1=O [B-55, (6-(8-(2-Bromophenethyl)-2,6-dioxo-1-(prop-2-yn-1-yl)-1,2,6,7-tetrahydro-3H-purin-3-yl)hexyl)phosphonic acid]",–,–,225 to 227,98,857 ± 220,57.8 ± 18.9,94,–
"C#CCn1c(=O)c2[nH]c(CCc3ccccc3I)nc2n(CCCCP(=O)(O)O)c1=O [B-25, (4-(8-(2-Iodophenethyl)-2,6-dioxo-1-(prop-2-yn-1-yl)-1,2,6,7-tetrahydro-3H-purin-3-yl)butyl) phosphonic acid]",–,–,227 to 229,96,381 ± 112,43.1 ± 9.4,103,–
"CCCn1c(=O)c2[nH]c(-c3ccccc3)nc2n(CCCCP(=O)(O)O)c1=O [J-3, (4-(2,6-Dioxo-8-phenyl-1-propyl-1,2,6,7-tetrahydro-3H-purin-3-yl)butyl)phosphonic acid]",> 10000,> 10000,–,–,–,–,–,IC50 (human MRGPRX4-83L [1]; Table 1): > 10000 nM; IC50 (human MRGPRX4-83L [2]): > 10000 nM; IC50 (MRGPRX4-83S [3]): > 10000 nM; EC50 (MRGPRX4-83S [3]): > 10000 nM; EC50 (MRGPRX4-83S [4]): > 10000 nM
"C#CCn1c(=O)c2c(nc(CCc3cccc(C(F)(F)F)c3)n2C)n(CCCCP(=O)(O)O)c1=O [B-16, (4-(7-Methyl-2,6-dioxo-1-(prop-2-yn-1-yl)-8-(3-(trifluoromethyl)phenethyl)-1,2,6,7-tetrahydro-3H-purin-3-yl)butyl)phosphonic acid]",370 ± 50,32.4 ± 5.6,–,–,–,–,–,Emax at 0.1 µM (human MRGPRX4-83L [1]; [5]): 100%; Emax at 1 µM (human MRGPRX4-83L [2]; [7]): 100%; Emax (MRGPRX4-83S [3]): 100%; EC50 (MRGPRX4-83S [3]): 2.28 ± 0.16 nM; Emax (MRGPRX4-83S [4]): 137%; EC50 (MRGPRX4-83S [4]): 3.17 ± 0.6 nM
"COc1cccc(CCc2nc3c([nH]2)c(=O)n(CC2CCC2)c(=O)n3CCCCP(=O)(O)O)c1 [B-13, (4-(1-(Cyclobutylmethyl)-8-(3-methoxyphenethyl)-2,6-dioxo-1,2,6,7-tetrahydro-3H-purin-3-yl)butyl)phosphonic acid]",48300 ± 14100,1600 ± 460,–,–,–,–,–,Emax (human MRGPRX4-83L [1]; [5]): 96%; Emax (human MRGPRX4-83L [2]; [7]): 94%; Emax (MRGPRX4-83S [3]): 93%; EC50 (MRGPRX4-83S [3]): 68.9 ± 17 nM; Emax (MRGPRX4-83S [4]): 91%; EC50 (MRGPRX4-83S [4]): 59.9 ± 10.7 nM
"C#CCn1c(=O)c2[nH]c(/C=C/c3cccc(OC)c3)nc2n(CCCOP(=O)(O)O)c1=O [H-3, (E)-3-(8-(3-Methoxystyryl)-2,6-dioxo-1-(prop-2-yn-1-yl)-1,2,6,7-tetrahydro-3H-purin-3-yl)propyl dihydrogen phosphate, reference compound]",> 10000,> 10000,–,–,–,–,–,IC50 (human MRGPRX4-83L [1]; Table 1): > 10000 nM; IC50 (human MRGPRX4-83L [2]): > 10000 nM; EC50 (MRGPRX4-83S [3]): > 10000 nM; EC50 (MRGPRX4-83S [4]): > 10000 nM
